Results as given in US8865641B2, “Methods of treatment of fatty liver disease by pharmacological activation of cholinergic pathways” (priority 2011, dated 2014).

How the values were obtained:
Type in all cases: in vivo, C57BL/6J mice
[1] = tested on: mice with high-fat diet-induced obesity; assay: Fasting blood glucose, plasma insulin, HOMA-IR and plasma total cholesterol in high-fat diet-fed mice; conditions: 4 mg/kg i.p. once daily for 4 weeks, HFD-G vs HFD-S mice
Method: (§1) C57BL/6J mice were initially fed a regular chow for 10 days and then switched to a high-fat diet (D12492, 60% kcal from fat, shown in FIG. 2) or its corresponding low-fat control diet (D12450B, 10% kcal from fat, shown in FIG. 1) (Research Diets, New Brunswick, N.J.) for 12 weeks. After the first 8 weeks mice on the high-fat diet were divided into 2 groups and treated with saline (i.p. once daily) or galantamine (Galanthamine Hydrobromide, EMD Biosciences, Inc., La Jolla, Calif., USA) (4 mg/kg, i.p., once daily) for the remaining 4 weeks of the study. In parallel, mice on the low-fat (control) diet were treated with saline. Body weight and food intake were determined on a weekly basis by trained personnel of the Center for Comparative Physiology at the Feinstein Institute, who were blinded to treatment groups. At the end of the experimental time period mice were euthanized and abdominal adiposity, liver weight, cytokine and adipokine levels, metabolic profile, insulin resistance, and liver histology were evaluated. In a separate experiment, groups of mice were fed and treated and body weights and food intake recorded as described above. At the end of the experimental time period mice were subjected to the insulin sensitivity test or the glucose tolerance test as described below.
Blood glucose during the study was measured by nicking the tails and using the Contour blood glucose meter (Bayer, Elkhart, Ind.) with Contour blood glucose test strips according to the manufacturer's recommendations. After blood collection the cuts were compressed with sterile gauze until bleeding termination.
(§2) Plasma samples were sent to Millipore and plasma insulin, leptin, MCP-1, PAI-1, resistin, TNF and IL-6 levels were determined by using the Millipore's MILLIPLEX map mouse adipokine panel assay with the following detection sensitivity limits: leptin 16.71 pg/mL; resistin 1.79 pg/mL; IL-6 1.89 pg/mL; TNF 4.39 pg/mL; MCP-1 14.4 pg/mL; PAI-1 16.4 pg/mL, insulin 42.2 pg/mL. Plasma samples were sent to IDEXX and plasma levels of total cholesterol and ALT were determined by using IDEXX's Olympus analyzers and spectrophotometric determination. Plasma adiponectin was measured by using the mouse adiponectin/Acrp30 immunoassay (R&D Systems) according to the manufacturer's recommendations.
Insulin resistance was evaluated by using glucose and insulin level values and by applying the homeostatic model assessment-insulin resistance (HOMA-IR) formula, presented in Mlinar et al. (2007) Molecular mechanisms of insulin resistance and associated diseases. Clin Chim Acta 375:20-35, the relevant teachings of which is incorporated herein by reference. Specifically, the expression used to evaluate insulin resistance is: HOMA index=insulin (mU/L)×[glucose (mmol/L)/22.5] […]

[2] = tested on: mice with high-fat diet-induced obesity; assay: Fatty liver manifestations (plasma ALT, liver weight, hepatic steatosis on H&E liver sections) in high-fat diet-fed mice; conditions: 4 mg/kg i.p. once daily for 4 weeks
Method: (§3) Experiments with male C57BL/6J mice (5-6 month old, Jackson Lab) were performed in accordance with the NIH Guidelines under protocols approved by the IACUC Committee of the Feinstein Institute for Medical Research, North Shore-LIJ Health System, Manhasset, N.Y., USA.
as §1, with “At the end of the experimental time period mice were subjected to the insulin sensitivity test or the glucose tolerance test as described below.” left out
as §2
Formalin fixed liver tissue was imbedded in paraffin, sliced and then liver tissue sections were subjected to hematoxylin and eosin (H&E) staining and microscopic slides prepared. Hepatic steatosis was determined by microscopic evaluation of H&E stained liver sections for lipid accumulation by using Zeiss apotome and semi-quantified by applying a previously implemented grading criteria: no fat accumulation (grade 0); less than 33% fat-containing hepatocytes (grade 1); less than 66% fat-containing hepatocytes (grade 2); more than 66% fat-containing hepatocytes (grade 3).

[3] = tested on: mice with high-fat diet-induced obesity; assay: Insulin sensitivity test (IST) in high-fat diet-fed mice
Method: (§4) Separate groups of mice were fed and treated and body weights and food intake recorded as described above (in Experimental design). At the end of the 12 week period, mice from the three experimental groups were used in the insulin sensitivity and glucose tolerance tests. In the insulin sensitivity test, after an overnight (18 hours) fast, mice (n=10 per group) were weighed and administered i.p. with insulin (Humulin R, Lilly, 0.5 units/kg). In the glucose tolerance test, after an overnight (21 hours) fast, mice (n=10 per group) were weighed and injected i.p. with glucose (10% D glucose solution, Sigma, 1 g/kg). Glucose levels were determined at 0, 15, 30, 60, and 120 min after insulin or glucose administration in blood from the tail vein by using the Contour blood glucose meter (Bayer, Elkhart, Ind.) with Contour blood glucose test strips.

[4] = tested on: mice with high-fat diet-induced obesity; assay: Plasma cytokine/adipokine levels in high-fat diet-fed mice (MILLIPLEX mouse adipokine panel; adiponectin immunoassay); conditions: 4 mg/kg i.p. once daily for 4 weeks
Method: as §1
(§5) After an overnight fast and following body weight and blood glucose determination mice were euthanized by CO2 asphyxiation. Heparinized blood was obtained by cardiac puncture and centrifuged within 30 min at 5,000 rpm for 10 min. Visceral adipose tissues and liver were harvested, rinsed with saline, and weighed. One piece of liver (the biggest lobe) was fixed in formalin for further H&E staining. Plasma and visceral fats (were frozen on dry ice) were transferred at −20° C. prior to further manipulations.
as §2

[5] = tested on: mice with high-fat diet-induced obesity; assay: Glucose tolerance test (GTT) in high-fat diet-fed mice; conditions: HFD-G as compared to HFD-S mice
Method: as §4

[6] = tested on: mice with high-fat diet-induced obesity; assay: Separate experiment: body weight and food intake in high-fat diet-fed mice before IST and GTT; conditions: 4 mg/kg i.p. once daily for 4 weeks
Method: as §1, with “At the end of the experimental time period mice were subjected to the insulin sensitivity test or the glucose tolerance test as described below.” left out
Separate groups of mice were fed and treated and body weights and food intake recorded as described above (in Experimental design). […]

[7] = tested on: mice with high-fat diet-induced obesity; assay: Body weight, food intake and abdominal adiposity in high-fat diet-fed mice; conditions: for body weight: 4 mg/kg i.p. once daily, FIG. 3A
Method: as §3, §1, §5

[8] = 4 mg/kg i.p. once daily for 4 weeks, HFD-G group, Table 1 in FIG. 4

COc1ccc2c3c1O[C@H]1C[C@@H](O)C=C[C@@]31CCN(C)C2 [galantamine]
fasting blood glucose levels ([1]; FIG. 6A): significantly reduced | plasma insulin levels ([1]; FIG. 6B): significantly reduced | plasma total cholesterol levels ([1]; FIG. 6D): significantly decreased | insulin resistance (HOMA-IR) ([1]; calculated from glucose and insulin, FIG. 6C): reversed this insulin resistance | hepatocyte fat accumulation (steatosis), microscopic observations ([2]; HFD-G mice, H&E liver sections, FIG. 9): decreased lipid accumulation | liver weight ([2]; HFD-G vs HFD-S mice, FIG. 7B): significant liver weight decrease | plasma alanine aminotransferase (ALT) levels ([2]; HFD-G vs HFD-S mice, end of 12 week study, FIG. 7A): significantly decreased | lipid accumulation in livers, semi-quantitative analysis ([2]; HFD-G vs HFD-S mice, steatosis grade 0-3, FIG. 10): significantly reduced | blood glucose levels in IST at 15 min and 30 min ([3]; HFD-G as compared to HFD-S mice, insulin 0.5 units/kg i.p. after overnight fast): significantly lower | blood glucose levels in IST at 120 min ([3]; HFD-G as compared to LFD-S mice, insulin 0.5 units/kg i.p. after overnight fast): significantly lower | time of lowest blood glucose levels in IST ([3]; HFD-G mice after insulin 0.5 units/kg i.p., unchanged at 60 min, increased at 120 min, FIG. 12): 30 min | plasma TNF levels ([4]; HFD-G group, no value above the assay sensitivity limit): < 4.39 pg/mL | plasma MCP-1 levels ([4]; HFD-G mice, FIG. 5C): significantly reduced | plasma IL-6 levels ([4]; HFD-G vs HFD-S mice, FIG. 5A): significantly reduced | plasma leptin levels ([4]; HFD-G vs HFD-S mice, FIG. 5B): significantly reduced | plasma resistin levels ([4]; HFD-G vs HFD-S mice, FIG. 5D): significantly lowered | plasma adiponectin levels ([4]; HFD-G vs HFD-S mice, FIG. 5F): a certain increase | plasma plasminogen activator inhibitor-1 (PAI-1) levels ([4]; HFD-S higher than LFD-S and HFD-G mice, FIG. 5E): none of these differences were statistically significant | area under the curve of the GTT data ([5]; FIG. 13B): significantly lower | blood glucose levels in GTT ([5]; glucose 1 g/kg i.p. after overnight fast, FIG. 13A): suppressed blood glucose levels | body weight ([6]; HFD-G mice, while HFD-S continued to increase, FIG. 11A): decreased | food intake ([6]; HFD-G vs HFD-S group, FIG. 11B): significantly lower | mesenteric adipose tissue weight [7, 8]: significantly reduced | retroperitoneal/perirenal adipose tissue weight [7, 8]: significantly reduced | food intake ([7]; 4 mg/kg i.p. once daily for 4 weeks, HFD-G vs HFD-S group during treatment, FIG. 3B): additional suppression of food intake | body weight ([7]; HFD-G mice at week 9 as compared to week 8, then sustained): lower after the first week of treatment | body weight ([7]; HFD-G vs HFD-S mice at weeks 11 and 12): lower than the weight of HFD-S mice
